Assay results published in patent US20030104507A1, “Method for detection of ATP” (priority 2001, published 2003).

Test system: ATPase activity endogenous to L929 cell lysate
Assay: Detergent inhibition of ATPase endogenous to L929 cell lysate (ATP remaining by luciferase luminescence, 22° C.)
Format: biochemical
Set-up: key to Relative ATPase Activity, slope det/slope lysate: slope with detergent / slope without; ≥1.0 = 100% activity, 0.5 = 50%
Protocol: Three separate detergents in each of four detergent classes were tested: anionic [SDS (Sodium dodecyl sulfate), Bioterge (an α olefin sulfate), and sodium deoxycholate], nonionic [TRITON X-100, BigCHAP (N,N-bis(3-D-Gluconamidopropyl)cholamide) and THESIT (polyethylene glycol 400 dodecyl ether, Fluka, #88315)], cationic [BDDABr (Benzyldimethyldodecylammonium bromide), CTAB (Cetyltrimethylammonium bromide), and DTAB (dodecyltrimethylammonium bromide)] and zwitterionic [CHAPS (3[(3-Cholamidopropyl)dimethylammonio]propanesulfonic acid), CHAPSO (3-([3-Cholamidopropyl]dimethylammonio)-2-hydroxy-1-propanesulfonate), and Sulfobetaine 3-10 ([…]-N,N-dimethyl-3-ammonio-1-propanesulfonate)]. Detergents were obtained from Sigma, Fluka and Aldrich.
L929 cells (ATCC CCL-1; 1.5×10^5 cells/ml) in F12/DMEM (Hyclone, SH30023) containing 10% horse serum (Hyclone, SH30074) were frozen and thawed for four cycles to create a cell lysate. Then 50 μl of stock detergent solutions [10%, 5.0%, 1.0%, and 0.5% (w/v)] were separately added to 450 μl cell lysate, creating a final detergent concentration in the cell lysate sample of 1.0%, 0.5%, 0.1%, and 0.05%, respectively (these percentage values are those used in Tables D and E herein below). Control samples contained either lysate only or 1.0 μM ATP in 15 mM HEPES buffer (pH 7.5). All samples were incubated at 22° C. (room temperature) for the duration of the experiment.
At various timepoints, 20 μl from each sample/detergent mixture was added to a 96-well luminometer plate in triplicate, and then 100 μl of a solution (“luciferase-luciferin” or “L/L reagent”) containing 25 mM HEPES buffer (pH 7.5), 40 μg luciferase enzyme LucPpe2m146 (Promega, E140), 100 μM luciferin (Promega), and 10 mM MgSO4 was added to each well. The L/L reagent was stored at 4° C. for the duration of the experiment and then allowed to reach ambient temperature just before assaying. After mixing the contents of the plate, light output was measured with a Dynex MLX microtiter plate luminometer (Chantilly, Va.), 0.5 second reads per well with the first measurement taken five minutes after the detergent solution was combined with the sample. The average relative light units and the timepoint at which it was measured (rlu; Table D) and percent of remaining luciferase activity at the timepoint (Table E) are reported; controls were run with each set of experimental conditions as indicated. The cationic and anionic detergents were assayed on one day with one set of controls. The zwitterionic and nonionic detergents were assayed on a separate day with a separate set of controls. The DTAB at 0.5% was assayed on both days (1 and 2).
The experiment was performed as detailed in Example 1. The average relative light unit values and the percent of ATP remaining values are listed below in Table F and G respectively.
The log of the percent of ATP remaining after original timepoint values from Table E and Table G were plotted on the y axis against time (in minutes) on the x axis. The slope of the line generated by these values in the presence of detergent was divided by the slope of the line generated by the values in the absence of detergent (lysate control) resulting in the Relative ATPase Activity values listed below in Table H.
A relative activity value of 1.0 or greater indicates 100% cellular ATPase activity at the concentration of detergent tested. A relative activity value of 0.5 indicates a two-fold (or 50%) decrease in the level of cellular ATPase activity at the concentration of detergent tested when compared to the ATPase activity level in the absence of the detergent. A relative activity value of 0.2 indicates a five-fold (or 80%) decrease in the level of cellular ATPase activity at the concentration of detergent tested when compared to the ATPase activity level in the absence of the detergent.

C[C@H](CCC(=O)N(CCCNC(=O)[C@H](O)[C@@H](O)[C@H](O)[C@H](O)CO)CCCNC(=O)[C@H](O)[C@@H](O)[C@H](O)[C@H](O)CO)[C@H]1CC[C@H]2[C@@H]3[C@H](O)C[C@@H]4C[C@H](O)CC[C@]4(C)[C@H]3C[C@H](O)[C@]12C [BIGCHAP, N,N-bis(3-D-Gluconamidopropyl)cholamide]
Average Relative Light Unit Values (0.05% detergent, 5 min): 6410.42 rlu
Percent ATP Remaining (0.05% detergent, 5 min): 100%
Average Relative Light Unit Values (0.05% detergent, 75 min): 2260.45 rlu
Percent ATP Remaining (0.05% detergent, 75 min): 35.3%
Average Relative Light Unit Values (0.05% detergent, 169 min): 1036.69 rlu
Percent ATP Remaining (0.05% detergent, 169 min): 16.2%
Average Relative Light Unit Values (0.05% detergent, 222 min): 487.72 rlu
Percent ATP Remaining (0.05% detergent, 222 min): 7.6%
Average Relative Light Unit Values (0.05% detergent, 260 min): 238.44 rlu
Percent ATP Remaining (0.05% detergent, 260 min): 3.7%
Relative ATPase Activity, slope det/slope lysate (0.05 percent detergent): 1.069
Slope (log percent ATP remaining vs time in minutes) (0.05 percent detergent): −0.0056
Average Relative Light Unit Values (0.1% detergent, 5 min): 6607.01 rlu
Percent ATP Remaining (0.1% detergent, 5 min): 100%
Average Relative Light Unit Values (0.1% detergent, 75 min): 2087.01 rlu
Percent ATP Remaining (0.1% detergent, 75 min): 31.6%
Average Relative Light Unit Values (0.1% detergent, 169 min): 1363.07 rlu
Percent ATP Remaining (0.1% detergent, 169 min): 20.6%
Average Relative Light Unit Values (0.1% detergent, 222 min): 634.92 rlu
Percent ATP Remaining (0.1% detergent, 222 min): 9.6%
Average Relative Light Unit Values (0.1% detergent, 260 min): 301.55 rlu
Percent ATP Remaining (0.1% detergent, 260 min): 4.6%
Relative ATPase Activity, slope det/slope lysate (0.10 percent detergent): 0.968
Slope (log percent ATP remaining vs time in minutes) (0.10 percent detergent): −0.0051
Average Relative Light Unit Values (0.5% detergent, 5 min): 7438.53 rlu
Percent ATP Remaining (0.5% detergent, 5 min): 100%
Average Relative Light Unit Values (0.5% detergent, 75 min): 3618.22 rlu
Percent ATP Remaining (0.5% detergent, 75 min): 48.6%
Average Relative Light Unit Values (0.5% detergent, 169 min): 2092.69 rlu
Percent ATP Remaining (0.5% detergent, 169 min): 28.1%
Average Relative Light Unit Values (0.5% detergent, 222 min): 1144.80 rlu
Percent ATP Remaining (0.5% detergent, 222 min): 15.4%
Average Relative Light Unit Values (0.5% detergent, 260 min): 677.61 rlu
Percent ATP Remaining (0.5% detergent, 260 min): 9.1%
Relative ATPase Activity, slope det/slope lysate (0.50 percent detergent): 0.782
Slope (log percent ATP remaining vs time in minutes) (0.50 percent detergent): −0.0041
Average Relative Light Unit Values (1.0% detergent, 5 min): 7576.05 rlu
Percent ATP Remaining (1.0% detergent, 5 min): 100%
Average Relative Light Unit Values (1.0% detergent, 75 min): 4043.35 rlu
Percent ATP Remaining (1.0% detergent, 75 min): 53.4%
Average Relative Light Unit Values (1.0% detergent, 169 min): 2474.59 rlu
Percent ATP Remaining (1.0% detergent, 169 min): 32.7%
Average Relative Light Unit Values (1.0% detergent, 222 min): 1374.29 rlu
Percent ATP Remaining (1.0% detergent, 222 min): 18.1%
Average Relative Light Unit Values (1.0% detergent, 260 min): 822.65 rlu
Percent ATP Remaining (1.0% detergent, 260 min): 10.9%
Relative ATPase Activity, slope det/slope lysate (1.00 percent detergent): 0.725
Slope (log percent ATP remaining vs time in minutes) (1.00 percent detergent): −0.0038

C[C@H](CCC(=O)NCCC[N+](C)(C)CCCS(=O)(=O)[O-])[C@H]1CC[C@H]2[C@@H]3[C@H](O)C[C@@H]4C[C@H](O)CC[C@]4(C)[C@H]3C[C@H](O)[C@]12C [CHAPS, 3[(3-Cholamidopropyl)dimethylammonio]propanesulfonic acid]
Average Relative Light Unit Values (0.05% detergent, 5 min): 6356.62 rlu
Percent ATP Remaining (0.05% detergent, 5 min): 100%
Average Relative Light Unit Values (0.05% detergent, 75 min): 2305.56 rlu
Percent ATP Remaining (0.05% detergent, 75 min): 36.3%
Average Relative Light Unit Values (0.05% detergent, 169 min): 1143.02 rlu
Percent ATP Remaining (0.05% detergent, 169 min): 18.0%
Average Relative Light Unit Values (0.05% detergent, 222 min): 500.80 rlu
Percent ATP Remaining (0.05% detergent, 222 min): 7.9%
Average Relative Light Unit Values (0.05% detergent, 260 min): 240.81 rlu
Percent ATP Remaining (0.05% detergent, 260 min): 3.8%
Relative ATPase Activity, slope det/slope lysate (0.05 percent detergent): 1.061
Slope (log percent ATP remaining vs time in minutes) (0.05 percent detergent): −0.0056
Average Relative Light Unit Values (0.1% detergent, 5 min): 6515.77 rlu
Percent ATP Remaining (0.1% detergent, 5 min): 100%
Average Relative Light Unit Values (0.1% detergent, 75 min): 2583.65 rlu
Percent ATP Remaining (0.1% detergent, 75 min): 39.7%
Average Relative Light Unit Values (0.1% detergent, 169 min): 1236.53 rlu
Percent ATP Remaining (0.1% detergent, 169 min): 19.0%
Average Relative Light Unit Values (0.1% detergent, 222 min): 448.96 rlu
Percent ATP Remaining (0.1% detergent, 222 min): 8.6%
Average Relative Light Unit Values (0.1% detergent, 260 min): 284.18 rlu
Percent ATP Remaining (0.1% detergent, 260 min): 4.4%
Relative ATPase Activity, slope det/slope lysate (0.10 percent detergent): 1.023
Slope (log percent ATP remaining vs time in minutes) (0.10 percent detergent): −0.0054
Average Relative Light Unit Values (0.5% detergent, 5 min): 7368.91 rlu
Percent ATP Remaining (0.5% detergent, 5 min): 100%
Average Relative Light Unit Values (0.5% detergent, 75 min): 4048.24 rlu
Percent ATP Remaining (0.5% detergent, 75 min): 54.9%
Average Relative Light Unit Values (0.5% detergent, 169 min): 2548.39 rlu
Percent ATP Remaining (0.5% detergent, 169 min): 34.6%
Average Relative Light Unit Values (0.5% detergent, 222 min): 1438.57 rlu
Percent ATP Remaining (0.5% detergent, 222 min): 19.5%
Average Relative Light Unit Values (0.5% detergent, 260 min): 909.15 rlu
Percent ATP Remaining (0.5% detergent, 260 min): 12.3%
Relative ATPase Activity, slope det/slope lysate (0.50 percent detergent): 0.688
Slope (log percent ATP remaining vs time in minutes) (0.50 percent detergent): −0.0036
Average Relative Light Unit Values (1.0% detergent, 5 min): 7241.33 rlu
Percent ATP Remaining (1.0% detergent, 5 min): 100%
Average Relative Light Unit Values (1.0% detergent, 75 min): 3816.06 rlu
Percent ATP Remaining (1.0% detergent, 75 min): 52.7%
Average Relative Light Unit Values (1.0% detergent, 169 min): 2348.28 rlu
Percent ATP Remaining (1.0% detergent, 169 min): 32.4%
Average Relative Light Unit Values (1.0% detergent, 222 min): 1322.30 rlu
Percent ATP Remaining (1.0% detergent, 222 min): 18.3%
Average Relative Light Unit Values (1.0% detergent, 260 min): 809.22 rlu
Percent ATP Remaining (1.0% detergent, 260 min): 11.2%
Relative ATPase Activity, slope det/slope lysate (1.00 percent detergent): 0.715
Slope (log percent ATP remaining vs time in minutes) (1.00 percent detergent): −0.0038
